Test system: Yeast strain SKAM4 RAD54-LacZ reporter
Test: Radarscreen with luminescence and S9 metabolic activation
Conditions: analysed with S9 compared with without S9; 6 hours at 30° C.; 2% S9
Method: Yeast strain SKAM4 bears a RAD54-LacZ reporter construct, which is responsive to agents that affect the integrity of its genomic DNA. Compounds supplied to the growth medium can be evaluated for genotoxicity by determining their effect on reporter gene expression. Reporter activity is measured by adding Beta-Glo® cell lyses buffer, containing a beta-galactosidase substrate, to the yeast culture. The substrate is cleaved by beta-galactosidase to luciferin and galactose. Luciferin is then used in a luciferase reaction to generate light. Metabolic activation of the compounds is obtained by adding post mitochondrial supernatant S9. […]
OD595 of the overnight cultures has to be determined. […]
600 μl S9-mixture is added to 5280 μl of the diluted culture and 600 μl buffer without S9 to 5280 μl of the diluted culture (these are quantities to fill 1 plate). […] The OD595 is measured after the plates have been vortexed rigorously to resuspend the precipitated yeast cells. […]
50 μl Beta-Glo® cell lyses buffer is added to the wells and the plate is vortexed for 45-60 min whereafter luminescence is measured. […]
Luminescence read out blanc correction is performed by subtraction of the luminescence value of medium without yeast cells from the luminescence read out of a sample with compound and dividing it by the corrected and normalized OD595 value. […]

Compound: CC[n+]1c(-c2ccccc2)c2cc(N)ccc2c2ccc(N)cc21 [ethidium bromide]
- signal (induction factor): higher signal when analysed with S9 than when analysed without S9

Reference: patent publication US20110287439A1, “CLAS[…]” (reMYND NV, priority 2008, published 2011)
